Reference: patent publication US12631620B2, “Methods of generating organoids for high throughput screening of drugs” (Yissum Research Development Company of the Hebrew …, priority 2019, dated 2026)
Counter-ions that a name gives are not always drawn. Numbered stars: 1 amine (or outer) side, 2 acyl side, 3 side chain; on linkers, the order of the positions; unused ones are H or OH. Bridge positions count the residues as written; N and C are the ends. Square brackets hold non-standard residues; d marks the D form. Peptide text beside a SMILES is read from it. I, II: the chains in the order shown. Actinocin(9to1) = Cc1c2oc3c(C)ccc(C(=O)[*:1])c3nc-2c(C(=O)[*:2])c(N)c1=O; NMeV = CN[C@H](C(=O)O)C(C)C; Sar = CNCC(=O)O

Tested on: U87-MG spheroids
Assay: High throughput kinetic oxygen screen of FDA-approved anticancer drugs on U87-MG micro-tumors with embedded oxygen sensors, 384-well plate
Format: cell-based, human
Details: 5 μM; U87-MG cells embedded in collagen gel or basement membrane gel
Method: In general, cells were kept under standard conditions in a humidified incubator at 37° C., under 5% CO2. U87-MG cells (obtained from the American Type Culture Collection (ATCC)) were cultured in Eagle's Minimum Essential Medium (EMEM) (ATCC® 30-2003™) supplemented with 15% (volume/volume) fetal bovine serum (FCS), 100 U/mL penicillin, and 100 μg/mL streptomycin (Sigma-Aldrich). Medium was changed every 2 days and cells were split every 5 days. Patient's specific glioblastoma derived cells (obtained from Cleveland clinic) were cultured in Neurobasal™ Medium (Trademark Serial number: 77137832) minus phenol red (Thermo-Fischer Scientific) supplemented with 1× (volume/volume) B27 minus Vitamin A (Thermo-Fischer Scientific), 10 ng/ml basic fibroblast growth factor (bFGF) 10 ng/ml EGF (epidermal growth factor) (PEPROTECH), 100 U/mL penicillin, 100 μg/mL streptomycin (Sigma-Aldrich) and L-Alanyl-L-Glutamine (Biological Industries). Medium was changed every 3 days and cells were split every 2-3 weeks. Rat retinal capillary endothelial cells (RCECs) were cultured in EGM™-2 Endothelial Cell Growth Medium-2 BulletKit™ (Lonza). Medium was changed every 3 days and cells were split every 6 days.
For tumor organoid formation, cancer cells were cultured to reach the adequate number needed for a 384 well plate. Cells were trypsinized, counted, and centrifuged at 300 g for 5 minutes at 4° C. The pellet was then mixed with 5 mg CPOx-50-RuP oxygen-sensing beads (Colibri Photonics) and resuspended in 800 μl of ice-cold solution of collagen type I (BD Biosciences) or Matrigel® Basement Membrane Matrix, Growth Factor Reduced (GFR) (Corning) for a final seeding density of 25-50×10^6 cells/mL. In some cases, endothelial cells (RCECs) are used in the assembly of the tumor spheroids by mixing them with same or double the number of tumor cells (i.e. 1:1 or 1:2 ratios) before centrifugation. The 800 μl mix was then equally distributed into a PCR strip (100 μl/tube) and passed to a Biomek i5 liquid handling workstation (Beckman Coulter) for the formation of uniformly-sized organoid in 384-well plate. The plate was then incubated for 30 minutes at 37° C., and the medium was replaced using the liquid handing workstation. Medium was changed every two days for 4 days before adding the drugs (5 μM of NIH chemotherapeutic drugs in triplicates per drug).
On the day of measurement, medium was changed 2-12 hours before drug induction, based on the oxygen consumption of the microtissue (e.g., U87-MG spheroids are given 6 hours after media change before drugs are induced).
After applying the drugs, the plate was placed on the DynamiX bioanalyzer (Tissue Dynamics). Organoids positions were detected optically. Oxygen content was monitored at a predetermined rate of 1 to 10 seconds of measurement at each location (e.g. Matrigel®/U87-MG spheroids treated with a set of FDA-approved anticancer drugs to enable cancer research was measured via phosphorescence for 4 seconds/well). Each cycle takes between 10-120 minutes, dependent on sampling rate and well number (e.g., Matrigel®/U87-MG spheroids 384 well at a sampling rate of 4 measurements/well take about 60 minutes for each cycle). […]
Further validation was usually done by multiple independent repeats (e.g. Matrigel®/U87-MG spheroids treated with a set of FDA-approved anticancer drugs to enable cancer research [AOD IX] were assessed in 3 independent experiments). […]

| Structure (SMILES) | type of response in kinetic oxygen measurement (positive, false negative, false positive) |
| --- | --- |
| COC(=O)C[C@](O)(CCCC(C)(C)O)C(=O)O[C@@H]1C(OC)=C[C@]23CCCN2CCc2cc4c(cc2[C@H]13)OCO4 [Omacetaxine mepesuccinate] | positive |
| Cc1c(C(=O)Nc2ccc(N3C[C@@H](C)O[C@@H](C)C3)nc2)cccc1-c1ccc(OC(F)(F)F)cc1 [Erismodegib] | false positive |
| COc1cccc2c1C(=O)c1c(O)c3c(c(O)c1C2=O)C[C@@](O)(C(C)=O)C[C@@H]3O[C@H]1C[C@H](N)[C@H](O)[C@H](C)O1 [Daunorubicin hydrochloride] | false negative |
| Cc1c2oc3c(C)ccc(C(=O)N[C@@H]4C(=O)N[C@H](C(C)C)C(=O)N5CCC[C@H]5C(=O)N(C)CC(=O)N(C)[C@@H](C(C)C)C(=O)O[C@@H]4C)c3nc-2c(C(=O)N[C@@H]2C(=O)N[C@H](C(C)C)C(=O)N3CCC[C@H]3C(=O)N(C)CC(=O)N(C)[C@@H](C(C)C)C(=O)O[C@@H]2C)c(N)c1=O [Dactinomycin] (I: T[dV]P[Sar][NMeV] / II: T[dV]P[Sar][NMeV]; ester I:1-I:C, II:1-II:C; linker I:N-II:N via Actinocin(9to1)) | false positive |
| CC(C)C[C@H](NC(=O)[C@H](Cc1ccccc1)NC(=O)c1cnccn1)B(O)O [Bortezomib] | positive |
